From ChEMBL document CHEMBL4385659, “Essential structure of orexin 1 receptor antagonist YNT-707, Part IV: The role of D-ring in 4,5-epoxymorphinan on the orexin 1 receptor antagonistic activity” (Bioorg Med Chem Lett, 2019)

What was measured:
[1] = target: T1, Orexin/Hypocretin receptor type 1 (Homo sapiens, UniProt O43613); assay: Antagonist activity at human OX1R expressed in CHOK1 cells assessed as inhibition of orexin A-induced intracellular Ca2+ release preincubated for 15 mins followed by orexin A addition by Fura 2-AM dye based fluorescence assay based by Cheng-Prusoff equation analysis; format: functional, cell-based
T1 sequence (O43613 whole entry): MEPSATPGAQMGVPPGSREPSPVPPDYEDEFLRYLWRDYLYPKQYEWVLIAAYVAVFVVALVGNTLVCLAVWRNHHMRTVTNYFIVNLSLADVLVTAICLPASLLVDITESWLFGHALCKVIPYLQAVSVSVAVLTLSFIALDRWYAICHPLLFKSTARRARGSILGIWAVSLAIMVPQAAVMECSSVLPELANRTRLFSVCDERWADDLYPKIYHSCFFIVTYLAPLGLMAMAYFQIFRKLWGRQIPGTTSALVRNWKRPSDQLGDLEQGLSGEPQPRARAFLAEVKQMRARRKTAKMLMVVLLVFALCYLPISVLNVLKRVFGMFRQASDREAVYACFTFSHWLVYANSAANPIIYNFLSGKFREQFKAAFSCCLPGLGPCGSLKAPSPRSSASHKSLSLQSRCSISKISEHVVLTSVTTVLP

[2] = target: T2, Orexin/Hypocretin receptor type 1 (Homo sapiens) (UniProt O43613); assay: Antagonist activity at human OX1R expressed in CHOK1 cells assessed as inhibition of orexin A-induced intracellular Ca2+ release at 10 uM preincubated for 15 mins followed by orexin A addition by Fura 2-AM dye based fluorescence assay […]; format: functional, cell-based
T2 sequence (whole entry): T1 sequence (O43613 whole entry)

COc1ccc2c3c1O[C@H]1[C@H](N(C)C(=O)/C=C/c4ccoc4)CC[C@](O)([C@@H]31)[C@H](N(CC1CC1)S(=O)(=O)c1ccccc1)C2 was tested. Which Ki [1] did it give?
Its Ki is 101 nM.

Which inhibition [2] does the source give for COc1ccc2c3c1O[C@H]1[C@@H](N(C)C(=O)/C=C/c4ccoc4)CC[C@](O)([C@@H]31)[C@H](N(CC1CC1)S(=O)(=O)c1ccccc1)C2 here?
Its inhibition is 11%.

How did the Ki [1] turn out when COc1ccc2c3c1O[C@@H]1[C@H]3[C@@H](CC[C@H]1N(C)C(=O)/C=C/c1ccoc1)[C@H](N(CC1CC1)S(=O)(=O)c1ccccc1)C2 was run?
Its Ki is 20.9 nM.

COc1ccc2c(c1)[C@H]1C[C@H](N(C)C(=O)/C=C/c3ccoc3)CC[C@@]1(O)[C@H](N(CC1CC1)S(=O)(=O)c1ccccc1)C2 was tested. Which Ki [1] did it give?
The Ki was 842 nM.
